Legend:
T-47D Tam1 [1] = test: relative IC50 (midpoint of fitted logistic curve, plateau may be below 50% inhibition; CellTiter-Glo viability); higher = less potent; conditions: 4-OH-tamoxifen in medium 1 µM; 72 h
Procedure, shortened: (§1)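 After seeding into 384-well plates with library drugs at five concentrations spanning a 10 000-fold range, breast cancer cell lines and their resistant derivatives were incubated 72 h at 37 °C. Resistant lines received medium with 1 μM of the selecting drug. CellTiter-Glo signal was read on a PHERAstar and scaled to vehicle-only and positive controls. Drug sensitivity score, relative IC50 (the curve midpoint) and top-dose inhibition came from logistic fits run in the Breeze pipeline.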

MCF-7 Tam1 [2] = test: as above; conditions: 4-OH-tamoxifen in medium 1 µM; 72 h
Procedure, shortened: as §1

ZR-75-1 Tam1 [3] = test: as above; conditions: 4-OH-tamoxifen in medium 1 µM; 72 h
Procedure, shortened: as §1

T-47D [4] = test: as above; conditions: 72 h
Procedure, shortened: as §1

ZR-75-1 Tam2 [5] = test: as above; conditions: 4-OH-tamoxifen in medium 1 µM; 72 h
Procedure, shortened: as §1

MCF-7 [6] = test: as above; conditions: 72 h
Procedure, shortened: as §1

BT-474 [7] = test: as above; conditions: 72 h
Procedure, shortened: as §1

ZR-75-1 [8] = test: as above; conditions: 72 h
Procedure, shortened: as §1

BT-474 Tam2 [9] = test: as above; conditions: 4-OH-tamoxifen in medium 1 µM; 72 h
Procedure, shortened: as §1

T-47D Tam2 [10] = test: as above; conditions: 4-OH-tamoxifen in medium 1 µM; 72 h
Procedure, shortened: as §1

BT-474 Tam1 [11] = test: as above; conditions: 4-OH-tamoxifen in medium 1 µM; 72 h
Procedure, shortened: as §1

T-47D Tam1 [12] = test: drug sensitivity score (DSS) (DSS (dimensionless)); higher = more sensitive; extreme values may be limits of the assay; conditions: 4-OH-tamoxifen in medium 1 µM; 72 h
Procedure, shortened: as §1

MCF-7 Tam1 [13] = test: as above; conditions: 4-OH-tamoxifen in medium 1 µM; 72 h
Procedure, shortened: as §1

ZR-75-1 Tam1 [14] = test: as above; conditions: 4-OH-tamoxifen in medium 1 µM; 72 h
Procedure, shortened: as §1

T-47D [15] = test: as above; conditions: 72 h
Procedure, shortened: as §1

ZR-75-1 Tam2 [16] = test: as above; conditions: 4-OH-tamoxifen in medium 1 µM; 72 h
Procedure, shortened: as §1

MCF-7 [17] = test: as above; conditions: 72 h
Procedure, shortened: as §1

BT-474 [18] = test: as above; conditions: 72 h
Procedure, shortened: as §1

ZR-75-1 [19] = test: as above; conditions: 72 h
Procedure, shortened: as §1

BT-474 Tam2 [20] = test: as above; conditions: 4-OH-tamoxifen in medium 1 µM; 72 h
Procedure, shortened: as §1

T-47D Tam2 [21] = test: as above; conditions: 4-OH-tamoxifen in medium 1 µM; 72 h
Procedure, shortened: as §1

BT-474 Tam1 [22] = test: as above; conditions: 4-OH-tamoxifen in medium 1 µM; 72 h
Procedure, shortened: as §1

SMILES | relative IC50 (T-47D Tam1 [1]) [µM] | relative IC50 (MCF-7 Tam1 [2]) [µM] | relative IC50 (ZR-75-1 Tam1 [3]) [µM] | relative IC50 (T-47D [4]; 4-OH-tamoxifen in medium 0 µM) [µM] | relative IC50 (T-47D [4]; 4-OH-tamoxifen in medium 1 µM) [µM] | relative IC50 (ZR-75-1 Tam2 [5]) [µM] | relative IC50 (MCF-7 [6]; 4-OH-tamoxifen in medium 0 µM) [µM] | relative IC50 (MCF-7 [6]; 4-OH-tamoxifen in medium 1 µM) [µM] | relative IC50 (BT-474 [7]; 4-OH-tamoxifen in medium 0 µM) [µM] | relative IC50 (BT-474 [7]; 4-OH-tamoxifen in medium 1 µM) [µM] | relative IC50 (ZR-75-1 [8]; 4-OH-tamoxifen in medium 0 µM) [µM] | relative IC50 (ZR-75-1 [8]; 4-OH-tamoxifen in medium 1 µM) [µM] | relative IC50 (BT-474 Tam2 [9]) [µM] | relative IC50 (T-47D Tam2 [10]) [µM] | relative IC50 (BT-474 Tam1 [11]) [µM] | drug sensitivity score (T-47D Tam1 [12]) | drug sensitivity score (MCF-7 Tam1 [13]) | drug sensitivity score (ZR-75-1 Tam1 [14]) | drug sensitivity score (T-47D [15]; 4-OH-tamoxifen in medium 0 µM) | drug sensitivity score (T-47D [15]; 4-OH-tamoxifen in medium 1 µM) | drug sensitivity score (ZR-75-1 Tam2 [16]) | drug sensitivity score (MCF-7 [17]; 4-OH-tamoxifen in medium 0 µM) | drug sensitivity score (MCF-7 [17]; 4-OH-tamoxifen in medium 1 µM) | drug sensitivity score (BT-474 [18]; 4-OH-tamoxifen in medium 0 µM) | drug sensitivity score (BT-474 [18]; 4-OH-tamoxifen in medium 1 µM) | drug sensitivity score (ZR-75-1 [19]; 4-OH-tamoxifen in medium 0 µM) | drug sensitivity score (ZR-75-1 [19]; 4-OH-tamoxifen in medium 1 µM) | drug sensitivity score (BT-474 Tam2 [20]) | drug sensitivity score (T-47D Tam2 [21]) | drug sensitivity score (BT-474 Tam1 [22])
N#CC[C@H](C1CCCC1)n1cc(-c2ncnc3[nH]ccc23)cn1 | > 10 | > 10 | > 10 | > 10 | > 10 | > 10 | > 10 | > 10 | > 10 | > 10 | > 10 | > 10 | > 10 | > 10 | > 10 | 0 | 0 | 0 | 0 | 0 | 0 | 0 | 0 | 0 | 0 | 0 | 0 | 0 | 0 | 0
c1cc(CN2CCCNCCNCCCNCC2)ccc1CN1CCCNCCNCCCNCC1 [Plerixafor] | > 2.5 | > 2.5 | > 2.5 | > 2.5 | > 2.5 | > 2.5 | > 2.5 | > 2.5 | > 2.5 | > 2.5 | > 2.5 | > 2.5 | > 2.5 | > 2.5 | > 2.5 | 0 | 0 | 0 | 0.403 | 0 | 0 | 0 | 0 | 0 | 0 | 0 | 0 | 0 | 0 | 0
O=P1(NCCCl)OCCCN1CCCl (centres undefined) [Ifosfamide] | > 10 | > 10 | > 10 | > 10 | > 10 | > 10 | > 10 |  | > 10 | > 10 | > 10 | > 10 | > 10 | > 10 | > 10 | 0 | 0 | 0 | 0 | 0 | 0 | 0 | 0.24 | 0 | 0 | 0 | 0 | 0 | 0 | 0
Nc1cc(C(F)(F)F)c(-c2cc(N3CCOCC3)nc(N3CCOCC3)n2)cn1 [Buparlisib (BKM-120)] | 0.687 | 1.23 | 0.71 | 0.931 | 1.52 | 0.963 | 0.561 | 0.622 | 1.73 | 0.87 | 0.99 | 0.931 | 1.4 | 1.09 | 1.35 | 9.5 | 4.41 | 7.01 | 9.27 | 7.4 | 7.44 | 10.8 | 9.9 | 5.66 | 11.1 | 6.24 | 5.88 | 8.94 | 8.09 | 9.32

From the supplement of paper PMC4932681
